From patent US20170121295A1, “POLYCYCLIC LPA1 ANTAGONIST AND USES THEREOF” (AMIRA PHARMACEUTICALS, INC., priority 2010, published 2017) come the findings set out here.

Data set [1] can be described thus: Metabolite identification in hepatocytes. The class given is in vitro ADME, rat, dog, monkey, human. Particulars: rat, dog or human hepatocytes. The procedure:
Rat, dog, monkey, or human hepatocytes were thawed according to the supplier's instructions. Cells were counted using the Trypan Blue method, and then diluted to 1×10^6 viable cells/ml with KB medium. Compound 1 was tested at 30 μM and incubated for up to 2 hours in rat hepatocytes and 4 hours in dog, monkey or human hepatocytes at 37° C. Reactions were terminated with addition of 3 times incubation volume of acetonitrile, centrifuged, and supernatants were transferred, nitrogen blow dried and reconstituted in 50% acetonitrile in water for LC/MS analysis.
LC/MS/MS analysis was carried out with a Sciex API-4000Qtrap tandem mass spectrometer (Applied Biosystems/Life Technologies, Carlsbad, Calif.) interfaced to a high-performance liquid chromatography system consisting of an Agilent 1200 series pump (Foster City, Calif.) and a LEAP Technologies PAL autoinjector (Carrboro, N.C.).
(§1) Parent/metabolite analysis was conducted in the positive ion mode (ESI) by multiple reaction monitoring of parent. The mobile phases contained 10 mM ammonium acetate in water with 0.05% formic acid (solvent A) and 10 mM ammonium acetate in 50% acetonitrile/50% methanol with 0.05% formic acid (solvent B). For Compound 1, the flow rate was maintained at 1 mL/min and the total run time was 2.5 min. Analytes were separated on a YMC ODS-AQ column (2.1×150 mm; 3 μm) and eluted with a linear gradient as follows: • 1. mobile phase was held for 0.5 min at 5% B, • 2. B was increased from 5% to 95% over the next 0.2 min, • 3. B was held constant for 1.3 min at 95%, and • 4. B was returned to the initial gradient conditions.
GSH adducts were investigated in microsomes, hepatocytes and rat bile using several methods including the neutral loss of pyroglutamate (129 Da) as well as a precursor ion scans of Compound 1 (105 Da, 318 Da and 438 Da).
For metabolite quantitation, the flow rate was maintained at 0.25 mL/min and the total run time was 60 min. Analytes were separated using a linear gradient as follows: • 1. mobile phase was held for 5 min at 5% B, • 2. B was increased from 5% to 95% over the next 45 min. • 3. […]

Data set [2] in a line: Metabolites generated in vivo (rat bile and urine, rat and dog plasma). The procedure:
Compound 2 (2 mg/kg) was administered intravenously (IV) to fasted rats as a solution in 0.9% saline via a bolus injection into the jugular vein (2 mg/mL; […]).
Rats with surgically placed bile duct and jugular vein cannula were purchased from Charles River Laboratories and allowed to acclimate for 2 days. Compound 2 was intravenously dosed (2 mg/kg) to three rats as a solution in 0.9% saline (2 mg/mL; 1 mL/kg). Bile samples were collected at time-points 0-2, 2-5 and 5-8, and urine samples were collected at time-points 0-4 and 4-8 hrs post-dose in 8 mL scintillation vials and stored at −40° C. until analysis.
Concentrations of Compound 1 in rat plasma were determined by LC-MS/MS after protein precipitation. Rat plasma (100 μL) was treated with 400 μL of internal standard solution (ISTD, buspirone in acetonitrile containing 1.5% acetic acid) to precipitate proteins. Samples were vortexed and then centrifuged for 10 min at approximately 4,000 rpm (3700×g) at 4° C. (Beckman centrifuge, Brea, Calif.).
as §1
For metabolite quantitation, the flow rate was maintained at 0.25 mL/min and the total run time was 60 min. Analytes were separated using a linear gradient as follows: • 1. mobile phase was held for 5 min at 5% B, • 2. B was increased from 5% to 95% over the next 45 min. • 3. B was held constant for 5 min at 95%, and • 4. B was returned to the initial gradient conditions

Data set [3] is described as follows: Pharmacokinetics in Male Beagle Dogs. The class given is in vivo. The conditions noted are these: free acid dosed orally at 5 mg/kg. The procedure:
The pharmacokinetics of Compound 1 and Compound 2 was assessed in male Beagle dogs.
Dosing of male Beagle dogs (n=3) was performed. Compound 1 or Compound 2 was dosed intravenously at 2 mg/kg (fasted) and orally (fasted or non-fasted) at 5 mg/kg. In fasted animals, food was withheld a minimum of 12 hours prior to dosing and then returned 4 hours post-dose. Non-fasted animals were allowed to feed 1 hour prior to dosing ad libitum. Compound 2 capsules were given by oral gavage in the fasted state. Plasma samples were collected by Perry Scientific study personnel.
The capsules are noted in Table 25 below. Capsules were size 0 gelatin (Capsugel, Peapack, N.J.). Tablet formulations are noted in Example 24.
For the clinical drug product oral solution of active agent (1.67 mg/mL), sucralose (0.5% w/w) and cherry flavor (0.5% w/w) is added to the formulation as a sweetener and taste masking agent, respectively to a 0.5% methocel aqueous solution.
Blood samples (approximately 1 mL total blood) were taken from each dog at pre-dose, and an initial time of 5 or 15 min and then various time points up to 24 hours post-dose (10-11 samples per animal). Samples were collected on wet ice in tubes containing potassium EDTA. After each blood draw, the cannula was flushed with an equivalent volume of heparinized saline (0.1 mL at 40 units/mL). Plasma samples, prepared by centrifugation of whole blood, were stored frozen (−80° C.) prior to analysis.

For the next data set, the target named is T1, Human LPA1 (Homo sapiens, UniProt Q92633).
T1 construct: the full-length cDNA for human LPA1 was obtained by PCR of the reverse transcription reaction; expressed in transfected cells
The data set can be described thus: LPA1 Calcium Flux Assay. It is filed as cell-based. The conditions noted are these: human LPA1 expressing CHO cells, 10 nM LPA; read-out: Ca Flux IC50 LPA1. The procedure:
A 1.1 kb cDNA encoding the human LPA1 receptor was cloned from human lung. Human lung RNA (Clontech Laboratories, Inc. USA) was reverse transcribed using the RETROscript kit (Ambion, Inc.) and the full-length cDNA for human LPA1 was obtained by PCR of the reverse transcription reaction. The nucleotide sequence of the cloned human LPA1 was determined by sequencing and confirmed to be identical to the published human LPA1 sequence (An et al. Biochem. Biophys. Res. Commun. 231:619 (1997). The cDNA was cloned into the pCDNA5/FRT expression plasmid and transfected in CHO cells using lipofectamine 2000 (Invitrogen Corp., USA). Clones stably expressing human LPA1 were selected using hygromycin and identified as cells that show Ca-influx in response to LPA.
Human LPA1 or LPA3 expressing CHO cells are seeded at 20,000-45,000 cells per well in a 96-well poly-D-lysine coated plate one or two days before the assay. Prior to the assay, the cells are washed once with PBS and then cultured in serum-free media overnight. On the day of the assay, a calcium indicator dye (Calcium 4, Molecular Devices) in assay buffer (HBSS with Ca^2+ and Mg^2+ and containing 20 mM Hepes and 0.3% fatty-acid free human serum albumin) is added to each well and incubation continued for 1 hour at 37° C. 10 μl of test compound in 2.5% DMSO are added to the cells and incubation continued at room temperature for 30 minutes. Cells are the stimulated by the addition of 10 nM LPA and intracellular Ca^2+ measured using the Flexstation 3 (Molecular Devices). IC50s are determined using Graphpad prism analysis of drug titration curves.

The target of another data set is LPA4 (Homo sapiens, UniProt Q99677). The data set can be described thus: LPA4 Calcium Flux Assay. The class given is cell-based. The conditions noted are these: read-out: Ca Flux IC50 LPA4.
Sequence of LPA4 (Q99677 whole entry, species assumed): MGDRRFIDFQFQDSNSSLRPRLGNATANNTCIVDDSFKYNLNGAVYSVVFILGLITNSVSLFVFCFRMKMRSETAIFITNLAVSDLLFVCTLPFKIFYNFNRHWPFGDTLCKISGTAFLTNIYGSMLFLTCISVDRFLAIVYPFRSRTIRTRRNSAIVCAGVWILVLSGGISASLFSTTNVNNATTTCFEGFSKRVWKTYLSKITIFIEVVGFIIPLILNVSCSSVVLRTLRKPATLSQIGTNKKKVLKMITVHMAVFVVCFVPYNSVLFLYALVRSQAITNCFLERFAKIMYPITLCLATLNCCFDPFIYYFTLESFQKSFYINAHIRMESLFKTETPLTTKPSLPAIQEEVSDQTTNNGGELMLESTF

T1 sequence (Q92633 whole entry): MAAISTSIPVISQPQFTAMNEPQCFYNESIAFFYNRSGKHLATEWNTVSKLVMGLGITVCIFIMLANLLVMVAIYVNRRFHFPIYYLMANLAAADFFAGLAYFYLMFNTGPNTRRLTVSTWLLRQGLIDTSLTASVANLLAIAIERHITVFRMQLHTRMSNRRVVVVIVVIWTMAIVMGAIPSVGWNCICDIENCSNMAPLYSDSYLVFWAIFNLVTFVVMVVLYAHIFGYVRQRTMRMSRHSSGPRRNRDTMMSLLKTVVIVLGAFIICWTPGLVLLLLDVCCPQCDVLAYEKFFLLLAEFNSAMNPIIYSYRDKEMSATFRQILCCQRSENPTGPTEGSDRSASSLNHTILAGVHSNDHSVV

As a reminder, the bioavailability is dose-corrected exposure relative to a reference, in per cent. Usually IC50 stands for the concentration needed to halve the response being measured. Turning to `Cc1noc(-c2ccc(-c3ccc(C4(C(=O)O)CC4)cc3)cc2)c1NC(=O)O[C@H](C)c1ccccc1` [Compound 1, 1-{4′-[3-methyl-4-((R)-1-phenyl-ethoxycarbonylamino)-isoxazol-5-yl]-biphenyl-4-yl}-cyclopropanecarboxylic acid], the “GSH adduct in hepatocytes” value in data set [1] is “No GSH adduct was observed”. The “GSH adduct in rat bile” value in data set [2] (in vivo) is reported as “neither GSH adduct is observed”. For the same compound, in data set [2] (plasma (rat & dog), rat bile or urine), the “primary amine (decarboxylation) and its secondary metabolites” value is recorded as “Neither the primary amine (i.e. decarboxylation) nor its secondary metabolites (glycosylation or glucuronidation) are observed”. For the same compound, the exposure result in data set [3] is given as “reduced exposure”. In data set [3] (male, Beagle, dog, plasma, po, 5 mg/kg, read-out: apparent oral bioavailability), the bioavailability amounted to 19%. For the same compound, the half-maximal inhibitory concentration (IC50) on Human LPA1 was less than 200 nM; at LPA4, more than 1000 nM.
